The nature of data set [1]: Oral bioavailability in human at 10 mg. The note with it: in vivo. It counts as ADME, organism-based.
A further data set concerns the target Plasma kallikrein (Homo sapiens, UniProt P03952). As to the kind of experiment: Competitive inhibition of human plasma kallikrein using S2302 as substrate by UV-visible spectrophotometer.
For the next data set, the target named is Plasminogen (Homo sapiens, UniProt P00747). The data set is described as follows: Competitive inhibition of human plasmin using chromozyme PL as substrate by UV-visible spectrophotometer.
For the next data set, the target named is Coagulation factor X (Homo sapiens, UniProt P00742). As to the kind of experiment: Competitive inhibition of human factor 10a using pefachrome F10a as substrate by UV-visible spectrophotometer.
A further data set has as its target Coagulation factor XI (Homo sapiens, UniProt P03951). The data set is described as follows: Competitive inhibition of human factor 11a using pefachrome PCa as substrate by UV-visible spectrophotometer.
The nature of data set [2]: Apparent permeability across human Caco2 cells measured every 30 mins for 2 hrs. The following applies: Caco-2. Format: ADME, cell-based. On the technique in general: Passage across Caco-2 layers is used to estimate intestinal permeability.
Data set [3] is described as follows: Oral bioavailability in human at 57 to 200 mg. It counts as ADME, organism-based. The note with it: in vivo.
The species entered for data set [4] is Homo sapiens. The data set is described as follows: Selectivity ratio of Ki for human PKK to Ki for human factor 11a.
Data set [5] is described as follows: Apparent permeability across apical to basolateral side in human Caco2 cells at 10 umol/l measured at 45 to 120 mins by LC-MS/MS analysis. It counts as ADME, cell-based. The following applies: Caco-2.
The nature of data set [6]: Efflux ratio of apparent permeability across basolateral to apical over apical to basolateral side in human Caco2 cells. It counts as ADME, cell-based. The note with it: Caco-2.
The species entered for data set [7] is Homo sapiens. As to the kind of experiment: Selectivity ratio of Ki for recombinant human factor 9a to Ki for human factor 10a.
A short description of data set [8]: Apparent permeability across apical to basolateral side in human Caco2 cells at 750 uM measured over 90 mins by HPLC-MS analysis. It counts as ADME, cell-based. The note with it: Caco-2.

The values that follow come from ChEMBL document CHEMBL4229329, “Design of Small-Molecule Active-Site Inhibitors of the S1A Family Proteases as Procoagulant and Anticoagulant Drugs” (J Med Chem, 2018).

For `O=C(NC[C@H]1CN(c2ccc(N3CCOCC3=O)cc2)C(=O)O1)c1ccc(Cl)s1` [RIVAROXABAN], the bioavailability in data set [1] is > 80%. As to `N=C(N)c1ccc(CC(=O)[C@H](Cc2cccc(CN)c2)NC(=O)[C@@H](CCCc2ccccc2)NS(=O)(=O)Cc2cccc(C(=O)O)c2)cc1`, the inhibition constant Ki was determined as 0.02 nM on Plasma kallikrein, 2.2 nM on Plasminogen, 45 nM on Coagulation factor X and 18 nM on Coagulation factor XI.

For the compound `N=C(N)c1ccc(CNC(=O)[C@@H]2CCN2C(=O)[C@H](NCC(=O)O)C2CCCCC2)cc1`, in data set [2], the Papp at 2 h amounted to 0.03 ×10⁻⁶ cm/s. In addition, the bioavailability in data set [3] is 3 to 7%. Turning to `O=C(N[C@@H](Cc1ccccc1)C(=O)NCc1cc(=O)[nH]c2ccc(Cl)cc12)c1ccc2[nH]c(=O)cc(O)c2c1`, the Ratio Ki in the data set filed under Homo sapiens [4] came out at 10. The apical-to-basolateral permeability (Papp A→B) at 10 µM in [5] is 0.28 ×10⁻⁶ cm/s. Turning to `CCCCCCOC(=O)NC(=N)c1ccc(NCc2nc3cc(C(=O)N(CCC(=O)OCC)c4ccccn4)ccc3n2C)cc1` [DABIGATRAN ETEXILATE], the efflux ratio in data set [6] is 13.8. For the compound `N=C(N)c1cccc(-n2nc(C(F)(F)F)cc2C(=O)Nc2ccc(-n3cnc4ccccc43)cc2F)c1`, the Ratio Ki in the data set listed under Homo sapiens [7] was found to be 130. For `CCOC(=O)CN[C@@H](C(=O)N1CC[C@H]1C(=O)NCc1ccc(/C(N)=N\O)cc1)C1CCCCC1` [XIMELAGATRAN], the apical-to-basolateral permeability (Papp A→B) at 1.5 h, 750 µM in [8] amounted to 2.4 ×10⁻⁶ cm/s.

For orientation: bioavailability means dose-corrected exposure relative to a reference, in per cent. In general, Ki refers to a measure of affinity in units of concentration, obtained from inhibition or displacement. Read a low Ki as a stronger hold on the target. As a reminder, the Papp is a coefficient for how fast a substance crosses the barrier. As a reminder, the Papp A→B is how fast a substance crosses the layer from the apical side. The term efflux ratio denotes a quotient of directional permeabilities that is used to spot active efflux.
